In brackets after ≈: the same amount, converted by molar mass. Peptide text beside a SMILES is read from it. * marks the point of attachment. Orn(α-tetramethylguanidino) = CN(C)C(=N[C@@H](CCCN)C(=O)*)N(C)C

Test [1] relates to E. coli Rosetta DE3 pLysS. In words: MIC, liquid broth microdilution. The conditions noted are these: 25% MHBII medium, 7.5 × 10^6 CFU/mL, 37 °C, 20 ± 2 h, turbidity 600 nm, at least twice in triplicate. In kind it is cell-based, Escherichia coli. As for the experimental part:
(§1) The minimal inhibitory concentrations (MIC) were determined at least twice in triplicate using a liquid broth microdilution assay in sterile 96-well plates and a total volume of 100 μL per well. Aqueous peptide solutions were serially 2-fold diluted in 25% MHBII or 33% TSB medium in a volume of 50 µL. An overnight culture was diluted in 25% MHBII or 33% TSB medium to 1.5 × 10^7 CFU/mL, and an aliquot of 50 μL was added to each well. The final cell count in each well was 7.5 × 10^6 CFU/mL. The plates were incubated at 37 °C for 20 ± 2 h. The turbidity of each well was measured at a wavelength of 600 nm. The MIC was defined as the lowest peptide concentration where the turbidity was identical to medium only.
On the technique in general: Broth dilution looks for growth in wells or tubes with falling amounts of substance.

Test [2] deals with BW25113 ribosome extract, ribosomal binding site of Onc112. In words: Fluorescence polarization competition against cf-Onc112 (Ki). The conditions noted are these: unlabeled PrAMP against cf-labeled Onc112, calculated from IC50, 95% confidence interval in brackets. Set-up: species or system Escherichia coli. As for the experimental part: E. coli BW25113 and E. coli Rosetta pLysS were cultivated in LB medium and harvested at an OD600 of ~4 by centrifugation (5000× g, 30 min, 4 °C). The cell pellets were washed by resuspension in ribosome preparation buffer (20 mmol/L Hepes-KOH, 6 mmol/L MgCl2, 30 mmol/L NH4Cl, pH 7.6, 4°C) and subsequent centrifugation (5000× g, 30 min, 4 °C). Cell pellets were suspended in ribosome preparation buffer ([…]) containing freshly added 2-mercapotethanol (4 mmol/L). Lysozyme was added to the resuspended cells and incubated on ice for 30 min. The cell suspension was disrupted six times using a FastPrep-24^TM 5G instrument (MP Biomedicals, Solon, OH, USA) with BigPrep 50 mL setting (40 s, 4.0 m/s), incubated with DNase I (5 mL/L) on ice for one hour and centrifuged (16,000× g, 30 min, 4 °C). The cell debris was removed from the supernatant by centrifugation (32,000× g, 60 min, 4 °C), and the supernatant was centrifuged again (165,000× g, 17 h, 4 °C). The pellet was resuspended in ribosome preparation buffer (0.1 mL per g cell pellet) to obtain the 70S ribosome extract and stored at −80 °C. The ribosome concentration was estimated by recording the absorbance at 260 nm (1 AU for a ribosome concentration of 28 nmol/L). The molecular weight of the 70S E. coli ribosome was assumed to be 2.3 MDa.
Ki was determined for ribosome extracts using cf-labeled and unlabeled peptides in ribosome preparation buffer. Black 384-well plates were prepared as described above. Unlabeled peptides or antibiotics (20 µL, 656 µmol/L) were added and 2-fold serially diluted in 23 wells in ribosome preparation buffer. A ribosome solution was prepared by adjusting the ribosome concentration to ~90% of the upper Kd plateau obtained for the cf-labeled peptide to be studied and added to each well (10 µL). […] The fluorescence polarization was measured on a PARADIGMTM microplate reader in the top read position (λexc = 485 nm, λem = 535 nm) in triplicate on at least two different days. […] Inhibition constants, Ki, were calculated as described by Mathias and Jung.

Test [3] concerns E. coli BL21 (DE3) sbmA::Tn10^Cm. In kind it is cell-based, Escherichia coli. On the procedure: as §1
E. coli strain BL21(DE3) was randomly mutagenized by Tn10 insertion using the lambda phage lysate λNK1324 carrying a chloramphenicol resistance and grown on LB agar plates in the presence of chloramphenicol (15 µg/mL) at 30 °C overnight. The resistant colonies were transferred to 25% MHBII agar plates containing Api137 (32 or 64 µg/mL) and incubated again at 37 °C overnight. Genomic DNA was isolated by a Monarch® Genomic DNA purification kit (New England Biolabs, Frankfurt am Main, Germany) from the presumed double-resistant strains, and the sequences flanking the transposon insertion were determined by arbitrary primed PCR using arbitrary primer ARB6 and Tn10 transposon-specific primer IS10-R complementary to the IS10 element of Tn10 transposon. The first round of amplification included six cycles of denaturation (95 °C, 30 s), annealing (30 °C, 30 s), and extension (72 °C, 90 s), followed by 30 cycles of denaturation (95 °C, 30 s), annealing (45°C, 30 s), and extension (72 °C, 2 min), as well as a final extension (72 °C, 6 min). The second round of amplification used arbitrary primer ARB2 and primer IS10-R. The PCR consisted of 30 cycles of denaturation (95 °C, 30 s), annealing (52 °C, 30 s), and extension (72 °C, 2 min), followed by a final extension step (72 °C, 6 min). PCR products were purified with the NucleoSpin® Gel and a PCR cleanup kit (Macherey-Nagel, Düren, Germany) and sequenced using primer IS10-R (Eurofins MWG Operon, Ebersberg, Germany), and the corresponding protein was identified in a sequence database (UniProt and NCBI, 2021).

In test [4] the test system is E. coli BW25113 ΔsbmA +psbmA_A31G/G219T. The test is classed as cell-based, Escherichia coli. As for the experimental part:
as §1

`CC[C@H](C)[C@H](NC(=O)[C@H](Cc1ccc(O)cc1)NC(=O)[C@@H](NC(=O)[C@@H]1CCCN1C(=O)[C@H](CCCNC(=N)N)NC(=O)[C@H](CC(N)=O)NC(=O)[C@H](CC(N)=O)NC(=O)[C@H](CCCN)N=C(N(C)C)N(C)C)C(C)C)C(=O)N1CCC[C@H]1C(=O)N[C@@H](CCCNC(=N)N)C(=O)N1CCC[C@H]1C(=O)N[C@@H](CCCNC(=N)N)C(=O)N1CCC[C@H]1C(=O)N1CCC[C@H]1C(=O)N[C@@H](Cc1c[nH]cn1)C(=O)N1CCC[C@H]1C(=O)N[C@@H](CCCNC(=N)N)C(=O)N[C@@H](CC(C)C)C(N)=O` [Api88] ({Orn(α-tetramethylguanidino)}-NNRPVYIPRPRPPHPRL-NH2): the “MIC, Ros” value in test [1] was determined as 1 µg/mL (≈ 0.437 µM).
Consider `CC[C@H](C)[C@H](NC(=O)[C@H](Cc1ccc(O)cc1)NC(=O)[C@@H](NC(=O)[C@@H]1CCCN1C(=O)[C@H](CCCNC(=N)N)NC(=O)[C@H](CC(N)=O)NC(=O)[C@H](CC(N)=O)NC(=O)[C@H](CCCN)N=C(N(C)C)N(C)C)C(C)C)C(=O)N1CCC[C@H]1C(=O)N[C@@H](CCCNC(=N)N)C(=O)N1CCC[C@H]1C(=O)N[C@@H](CCCNC(=N)N)C(=O)N1CCC[C@H]1C(=O)N1CCC[C@H]1C(=O)N[C@@H](Cc1c[nH]cn1)C(=O)N1CCC[C@H]1C(=O)N[C@@H](CCCNC(=N)N)C(=O)N[C@@H](CC(C)C)C(=O)O` [Api137] ({Orn(α-tetramethylguanidino)}-NNRPVYIPRPRPPHPRL-OH), for which, in test [1], the “MIC, Ros” value is 2 µg/mL (≈ 0.873 µM). Also, the Ki (as a rule, a dissociation constant, usually derived from enzyme kinetics or from competition with a known ligand) in test [2] is 219 nM. Besides, the “MIC, 25% MHBII” value in test [3] (BL21 (DE3) sbmA::Tn10^Cm, 25% MHBII containing IPTG (0.1 mmol/L)) is on record as 16 µg/mL (≈ 6.98 µM); in test [4] (BW25113 ΔsbmA +psbmA_A31G/G219T, 25% MHBII containing IPTG (0.1 mmol/L)) it was 2 µg/mL (≈ 0.873 µM). Further, the “MIC, 33% TSB” value was 16 µg/mL (≈ 6.98 µM) in test [3] (BL21 (DE3) sbmA::Tn10^Cm, 33% TSB containing IPTG (0.1 mmol/L)) and 8 µg/mL (≈ 3.49 µM) in test [4] (BW25113 ΔsbmA +psbmA_A31G/G219T, 33% TSB containing IPTG (0.1 mmol/L)).
Take `CC[C@H](C)[C@H](NC(=O)[C@@H]1CCCN1C(=O)[C@H](CCCNC(=N)N)NC(=O)[C@H](CC(N)=O)NC(=O)[C@H](CC(N)=O)NC(=O)CN)C(=O)N[C@@H](Cc1ccc(O)cc1)C(=O)N[C@H](C(=O)N1CCC[C@H]1C(=O)N[C@@H](CCCNC(=N)N)C(=O)N1CCC[C@H]1C(=O)N[C@@H](CCCNC(=N)N)C(=O)N1CCC[C@H]1C(=O)N1CCC[C@H]1C(=O)N[C@@H](Cc1c[nH]cn1)C(=O)N1CCC[C@H]1C(=O)N[C@@H](CCCNC(=N)N)C(=O)N1CCC[C@H]1C(=O)N[C@H](C(=O)N[C@@H](CCCNC(=N)N)C(=O)N[C@H](C(=O)O)C(C)C)[C@@H](C)CC)[C@@H](C)CC` [Api805] (H-GNNRPIYIPRPRPPHPRPIRV-OH; N-terminus assumed): the Ki in test [2] was 489 nM. Moreover, the “MIC in the E. coli BL21 sbmA::Tn10^Cm strain” value in test [3] (medium not stated (Table 3: 25% MHBII and 33% TSB)) came out at 128 µg/mL. Moreover, the “change of MIC after transformation of sbmA_A31G/G219T-harboring plasmid” value in test [4] (compared with E. coli BW25113 ΔsbmA) is “not altered”.
